Source: patent US20260285853A1, “COMPOUNDS AND METHODS FOR MODULATING SPLICING” (REMIX THERAPEUTICS INC., priority 2023, published 2026)
Like-named read-outs stand apart in the source and are kept apart here.

Assays:
Format in all cases: cell-based
MYB mRNA [1] = assay: Splicing RT-qPCR assay (THP), Table 2A
[2] = system: SH-SY5Y (human neuroblastoma) cells; assay: Cell viability, Cell Titer Glo 2.0 assay; settings: read-out: Viability SHSY5Y.3 GI50
Summary of the method: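 Following a 72 h incubation (37 °C, 5% CO2, 0.1% DMSO final), compound toxicity toward SH-SY5Y cells was quantified by CellTiter-Glo 2.0.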

HTT mRNA [3] = assay: Splicing RT-qPCR assay (THP), Table 2A
MYB mRNA [4] = assay: Gene panel canonical junction qPCR assay, decrease in CJ mRNA, Table 3
Summary of the method: (§1)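 Eleven-point dose responses from 10 uM final, 24 h, DMSO ≤0.25%, in A673 or K562 cells. Relative quantification by 2^(−ΔΔCt) against housekeeper and vehicle was converted to percent response over fixed ΔCt windows and fitted to yield IC50.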

HTT mRNA [5] = assay: as above
Summary of the method: as §1

[6] = Table 2A, THP, MYB alternative junction (AJ) mRNA, read-out: MYB AJ (AC50, increase in alternative junction mRNA)
[7] = Table 2A, THP, MYB canonical junction (CJ) mRNA, read-out: MYB CJ (IC50, decrease in canonical junction mRNA)
[8] = Table 2A, THP, HTT alternative junction (AJ) mRNA, read-out: HTT AJ (AC50, increase in alternative junction mRNA)
[9] = Table 2A, THP, HTT canonical junction (CJ) mRNA, read-out: HTT CJ (IC50, decrease in canonical junction mRNA)
[10] = decrease in CJ mRNA levels, canonical junction qPCR, gene panel
[11] = Table 2A (THP), AJ mRNA increase, read-out: MYB AJ (increase in alternative junction mRNA, AC50)
[12] = Table 2A (THP), CJ mRNA decrease, read-out: MYB CJ (decrease in canonical junction mRNA, IC50)
[13] = Table 2A (THP), AJ mRNA increase, read-out: HTT AJ (increase in alternative junction mRNA, AC50)
[14] = Table 2A (THP), CJ mRNA decrease, read-out: HTT CJ (decrease in canonical junction mRNA, IC50)
[15] = decrease in canonical junction (CJ) mRNA, gene panel qPCR, Table 3

| IC50 (MYB mRNA [1]; [7]) [µM] | GI50 [2] [µM] | IC50 (HTT mRNA [3]; [9]) [µM] | IC50 (MYB mRNA [4]; [10]) [µM] | IC50 (HTT mRNA [5]; [10]) [µM] | IC50 (MYB mRNA [1]; [12]) [µM] | IC50 (HTT mRNA [3]; [14]) [µM] | IC50 (MYB mRNA [4]; [15]) [µM] | IC50 (HTT mRNA [5]; [15]) [µM] | SMILES | AC50 (MYB mRNA [1]; [6]) [µM] | AC50 (HTT mRNA [3]; [8]) [µM] | AC50 (MYB mRNA [1]; [11]) [µM] | AC50 (HTT mRNA [3]; [13]) [µM] |
| --- | --- | --- | --- | --- | --- | --- | --- | --- | --- | --- | --- | --- | --- |
| < 0.1 | < 0.1 | 0.1 to 1 | < 0.1 | 0.1 to 1 |  |  |  |  | COc1nc2c(C(=O)Nc3cc(F)c4nc(C)cn4c3)ccc(N3C[C@H](C)N[C@@H](C)C3)c2s1 [Compound 705, 7-[(3S,5S)-3,5-dimethylpiperazin-1-yl]-N-(8-fluoro-2-methyl-imidazo[1,2-a]pyridin-6-yl)-2-methoxy-1,3-benzothiazole-4-carboxamide] | < 0.1 | 0.1 to 1 |  |  |
|  | 1 to 10 |  |  |  | < 0.1 | 1 to 10 | < 0.1 | 1 to 10 | COc1cc2nn(C)cc2cc1NC(=O)c1ccc(N2CCC3(CCN3)CC2)c2cn(C)nc12 [Compound 540] |  |  | < 0.1 | 1 to 10 |
| < 0.1 | 0.1 to 1 | > 10 | < 0.1 | > 10 |  |  |  |  | COc1nc2c(C(=O)Nc3cc(C#N)c4nc(C)cn4c3)ccc(N3C[C@H](C)N[C@@H](C)C3)c2s1 [Compound 758, N-(8-cyano-2-methyl-imidazo[1,2-a]pyridin-6-yl)-7-[(3S,5S)-3,5-dimethylpiperazin-1-yl]-2-methoxy-1,3-benzothiazole-4-carboxamide] | < 0.1 | > 10 |  |  |
| < 0.1 | < 0.1 | < 0.1 | < 0.1 | < 0.1 |  |  |  |  | COc1nc2c(C(=O)Nc3cc(F)c4nn(C)cc4c3)ccc(N3CCN[C@@H](CO)C3)c2s1 [Compound 743, (R)—N-(7-fluoro-2-methyl-2H-indazol-5-yl)-7-(3-(hydroxymethyl)piperazin-1-yl)-2-methoxybenzo[d]thiazole-4-carboxamide 2,2,2-trifluoroacetate] | < 0.1 | < 0.1 |  |  |
| 0.1 to 1 | 1 to 10 | 1 to 10 | 0.1 to 1 | 1 to 10 |  |  |  |  | C=CCNC1CCN(c2ccc(C(=O)Nc3cc(CNC(=O)OC)c4nn(C)cc4c3)c3nn(C)cc23)CC1 [Compound 833] | 0.1 to 1 | 1 to 10 |  |  |
| 0.1 to 1 | 0.1 to 1 | 0.1 to 1 | 0.1 to 1 | 0.1 to 1 |  |  |  |  | Cc1cn2cc(NC(=O)c3ccc(N4CCC(NC5CC5)CC4)n4nc(C)nc34)nc2c(C)n1 [Compound 641, 5-[4-(cyclopropylamino)-1-piperidyl]-N-(6,8-dimethylimidazo-[1,2-a]pyrazin-2-yl)-2-methyl-[1,2,4]-triazolo[1,5-a]pyridine-8-carboxamide] | 0.1 to 1 | 0.1 to 1 |  |  |
| < 0.1 | 0.1 to 1 | < 0.1 | < 0.1 | < 0.1 |  |  |  |  | COc1nc2c(C(=O)Nc3cc(F)c4nn(C)cc4c3)ccc(N3CCC4(CCCN4)CC3)c2s1 [Compound 768] | < 0.1 | < 0.1 |  |  |
| 1 to 10 | > 10 | > 10 | 1 to 10 | > 10 |  |  |  |  | CCNC1CCN(c2ccc(C(=O)Nc3cc(CN4CCCC4=O)c4nn(C)cc4c3)c3nn(C)cc23)CC1 [Compound 820, 4-[4-(ethylamino)-1-piperidyl]-2-methyl-N-[2-methyl-7-[(2-oxopyrrolidin-1-yl)methyl]indazol-5-yl]indazole-7-carboxamide] | > 10 | > 10 |  |  |
|  | > 10 |  |  |  | > 10 | > 10 | > 10 | > 10 | CC(=O)NCc1cn2cc(NC(=O)c3c(F)cc(N4CCC(NC5CC5)CC4)c4cn(C)nc34)nc2c(C)n1 [Compound 424, N-[6-(acetamidomethyl)-8-methyl-imidazo [1,2-a]pyrazin-2-yl]-4-[4-(cyclopropylamino)-1-piperidyl]-6-fluoro-2-methyl-indazole-7-carboxamide] |  |  | > 10 | > 10 |
|  | > 10 |  |  |  | > 10 | > 10 | > 10 | > 10 | CCNC1CCN(c2cc(F)c(C(=O)Nc3cn4cc(CC5CC5)nc4c(F)c3OC)c3nn(C)cc23)CC1 [Compound 336, N-[2-(cyclopropyl-methyl)-8-fluoro-7-methoxyimidazo-[1,2-a]pyridin-6-yl]-4-[4-(ethylamino)-1-piperidyl]-6-fluoro-2-methyl-indazole-7-carboxamide] |  |  | > 10 | > 10 |
| < 0.1 | < 0.1 | 0.1 to 1 | < 0.1 | 0.1 to 1 |  |  |  |  | COc1nc2c(C(=O)Nc3cc(F)c4nn(C)cc4c3)ccc(N3C[C@H](C)N[C@@H](C)C3)c2o1 [Compound 682, 7-[(3S,5S)-3,5-dimethylpiperazin-1-yl]-N-(7-fluoro-2-methyl-indazol-5-yl)-2-methoxy-1,3-benzoxazole-4-carboxamide] | < 0.1 | 0.1 to 1 |  |  |
| < 0.1 | 0.1 to 1 | 0.1 to 1 | < 0.1 | 0.1 to 1 |  |  |  |  | Cc1cn2cc(NC(=O)c3ccc(N4CCC(NC5CC5)CC4)c4cc(CF)nn34)cc(F)c2n1 [Compound 623, 4-[4-(cyclopropylamino)-1-piperidyl]-2-(fluoromethyl)-N-(8-fluoro-2-methyl-imidazo[1,2-a]-pyridin-6-y1)pyrazolo[1,5-a]pyridine-7-carboxamide] | < 0.1 | 0.1 to 1 |  |  |
| 0.1 to 1 | 0.1 to 1 | 0.1 to 1 | 0.1 to 1 | 0.1 to 1 |  |  |  |  | CNC1CN(c2ccc(C(=O)Nc3cn4cc(C)nc(CNS(C)(=O)=O)c4n3)c3nn(C)cc23)C1 [Compound 849] | 0.1 to 1 | 0.1 to 1 |  |  |
|  | 1 to 10 |  |  |  | < 0.1 | > 10 | < 0.1 | > 10 | CCNC1CCN(c2cc(F)c(C(=O)Nc3cn4cc(CF)nc(C)c4n3)c3nn(C)cc23)CC1 [Compound 383, 4-(4-(ethylamino)piperidin-1-yl)-6-fluoro-N-(6-(fluoromethyl)-8-methylimidazo[1,2-a]-pyrazin-2-yl)-2-methyl-2H-indazole-7-carboxamide 2,2,2-trifluoroacetate] |  |  | < 0.1 | 0.1 to 1 |
|  | 0.1 to 1 |  |  |  | 0.1 to 1 | 1 to 10 | 0.1 to 1 | 1 to 10 | CCNC1CCN(c2ccc(C(=O)Nc3cc(Oc4ccc(Cl)cc4)c4nc(C)cn4c3)c3nn(C)cc23)CC1 [Compound 325, N-[8-(4-chloro-phenoxy)-2-methylimidazo[1,2-a]-pyridin-6-yl]-4-[4-(ethylamino)-1-piperidyl]-2-methyl-indazole-7-carboxamide] |  |  | < 0.1 | 1 to 10 |
| < 0.1 | < 0.1 | 0.1 to 1 | < 0.1 | 0.1 to 1 |  |  |  |  | COc1nc2c(C(=O)Nc3cc(OC)c4nn(C)cc4c3)ccc(N3C[C@H](C)N[C@@H](C)C3)c2s1 [Compound 784, 7-((3S,5S)-3,5-dimethylpiperazin-1-yl)-2-methoxy-N-(7-methoxy-2-methyl-2H-indazol-5-yl)benzo[d]thiazole-4-carboxamide] | < 0.1 | 0.1 to 1 |  |  |
| > 10 | 1 to 10 | > 10 | > 10 | > 10 |  |  |  |  | COc1nc2c(C(=O)Nc3ccc4nn(C)cc4c3C(C)=O)ccc(N3C[C@H](C)N[C@@H](C)C3)c2s1 [Compound 808] | > 10 | 1 to 10 |  |  |
| 0.1 to 1 | 1 to 10 | > 10 | 0.1 to 1 | > 10 |  |  |  |  | COc1nc2c(C(=O)Nc3cc4cn(C)nc4cc3O)ccc(N3C[C@H](C)N[C@@H](C)C3)c2s1 [Compound 728, 7-[(3S,5S)-3,5-dimethylpiperazin-1-yl]-N-(6-hydroxy-2-methyl-indazol-5-yl)-2-methoxy-1,3-benzothiazole-4-carboxamide] | 0.1 to 1 | > 10 |  |  |
| > 10 | 1 to 10 | > 10 | > 10 | > 10 |  |  |  |  | CC(c1cc(NC(=O)c2ccc(N3CCC(NC4CC4)CC3)c3cn(C)nc23)cc2cn(C)nc12)S(=O)(=O)N(C)C (centres unmarked) [Compound 868] | > 10 | > 10 |  |  |
|  | 0.1 to 1 |  |  |  | 0.1 to 1 | 0.1 to 1 | 0.1 to 1 | 0.1 to 1 | COc1c(NC(=O)c2c(F)cc(N3CCC(NC4CC4)CC3)c3cn(C)nc23)cn2cc(C)nc2c1C#N [Compound 320, N-(8-cyano-7-methoxy-2-methyl-imidazo[1,2-a]pyridin-6-yl)-4-[4-(cyclopropylamino)-1-piperidyl]-6-fluoro-2-methyl-indazole-7-carboxamide] |  |  | 0.1 to 1 | 0.1 to 1 |
